The values that follow come from US20080318911A1, “20-Cyclopropyl, 26,27-Alkyl/Haloalkyl Vitamin D3 Compounds and Methods of Use Thereof” (BIOXELL S.P.A., priority 2004, published 2008).

Each structure is given as a SMILES string. In brackets after ≈: the same amount, converted by molar mass. Where only a bound is given, the exact number is not on record here.

The test system of one data set is RT112. Description: Proliferation assay using bladder cancer cell lines: RT112. The class given is cell-based, human. The conditions noted are these: 72 h culture, CyQuant proliferation assay. As for the experimental part: (§1) Bladder cancer cell lines (T24, RT112, HT1376 and RT4 are human bladder cancer cell lines; NHEK are normal human keratinocytes) were obtained from the European Collection of Cell Cultures (Salisbury, UK). Cells were plated at 3×10^3 per well, in flat bottomed 96-well plates in 100 μl of DMEM medium containing: 5% Fetal Clone 1,50 μg/l gentamicin, 1 mM sodium pyruvate and 1% non-essential amino acids. After culturing for 24 h at 37° C. in 5% CO2, to allow cells to adhere to the plates, VDR ligands (compounds (1)-(14)) were added at concentrations ranging from 100 μM to 0.3 μM in 100 μl of above-mentioned complete medium. After a further 72 h of culture, cell proliferation was measured using a fluorescence-based proliferation assay kit. (CyQuant Cell Proliferation Assay Kit, Molecular Probes, Eugene, Oreg., USA). The IC50 was calculated from the regression curve of the titration data.

For data set [1], the system named is human stromal bladder cells. In words: Basal growth of human stromal bladder cells. The class given is cell-based. The conditions noted are these: FIG. 2. An excerpt:
The Inventors confirmed the presence of vitamin D receptors (VDRs), as previously reported in the literature, on these cells (see below in FIG. 1).
The maximum tolerated dose (MTD) in rats is also listed for each compound (Table 5).

Data set [2] can be described thus: Determination of Maximum Tolerated Dose (MTD) in mice. The following applies: mouse, in vivo, po; female C57BL/6 mice, p.o. daily for four days; highest dose without hypercalcemia (serum calcium >10.7 mg/dl).
A further data set has as its system RT4. Description: Proliferation assay using bladder cancer cell lines: RT4. The conditions noted are these: 72 h culture, CyQuant proliferation assay. The class given is cell-based, human. As for the experimental part:
as §1

The test system of a further data set is HT1376. In words: Proliferation assay using bladder cancer cell lines: HT1376. The class given is cell-based. The following applies: Homo sapiens, HT-1376; 72 h culture, CyQuant proliferation assay. Here is the method: as §1
Data set [3] relates to IFN-γ production by allogeneic PBMC. Description: IFN-γ production in the mixed leukocyte response (MLR). The format is cell-based. The conditions noted are these: 120 h; MLR of allogeneic PBMC, 5 days, ELISA; read-out: INF-γ IC50. Here is the method:
Immature dendritic cells (DC) were prepared as described in Romani, N. et al. (Romani, N. et al. (1996) J. Immunol. Meth. 196:137). IFN-γ production by allogeneic T cell activation in the mixed leukocyte response (MLR) was determined as described in Penna, G., et al., J Immunol., 164: 2405-2411 (2000).
Briefly, peripheral blood mononuclear cells (PBMC) were separated from buffy coats by Ficoll gradient and the same number (3×10^5) of allogeneic PBMC from 2 different donors were co-cultured in 96-well flat-bottom plates. The vitamin D3 compounds were added to each of the cultures.
Background: In an ELISA, binding on a coated surface is turned into a signal by an enzyme label.

For a further data set, the system named is NHEK. In words: Proliferation assay: NHEK normal human keratinocytes. The format is cell-based. The conditions noted are these: 72 h culture, CyQuant proliferation assay. As for the experimental part:
as §1

In data set [4] the target is T1, human cDNA expressed CYP3A4 (Homo sapiens, UniProt P08684).
T1 construct: purchased Gentest
In words: Metabolic stability (hCYP3A4). The conditions noted are these: 2 μM, 60 min at 37° C. The format is in vitro ADME. Here is the method: Metabolic Stability (hCYP34A4). The relative stability of the substrate was determined by measuring the amount of substrate remaining following incubation with human cDNA expressed CYP3A4 microsomal preparations (Gentest, 6 pmol) against a control microsomal incubation containing no active cytochrome P450. The assay was performed in a 96-well plate format. Each compound was incubated at a concentration of 2 μM for 60 min at 37° C. LC-MS/MS was used for determining the compound remaining after incubation. The results were expressed as % remaining.

Data set [5] can be described thus: Theoretical maximum absorbable dose (MAD), mouse intestine. The conditions noted are these: calculated using PAMPA permeability. Here is the method: (§2) To evaluate the intestinal absorption potential of selected compounds, the maximum absorbable dose (MAD) in mouse, rat and human intestines was also calculated using a modification of the original equation (Johnson 1996, Hilgers 2003): MAD (mg)=S·Pe·(A/ILV)·SIV·SITT (Eq. 1), where S is the solubility measured at pH 7.4 (mg/ml), Pe is the permeability measured in artificial membranes (PAMPA) or in the apical to basolateral direction of Caco-2 cells (cm/sec), A is the intestinal surface area (cm^2), ILV is the intestinal lumen volume (cm^3), SIV is the small intestinal volume (ml) and SITT is the small intestinal transit time (sec).

Data set [6] has as its system Renin mRNA in As4.1 cells. In words: Renin mRNA inhibition in murine juxtaglomerular cell line As4.1. The format is cell-based. The conditions noted are these: Mus musculus, 24 h, real time PCR normalized versus β-actin, read-out: Renin mRNA inh.As4.1/wt. Here is the method:
As4.1 cells (80% subconfluent) were treated in complete medium with compounds of the invention at 10^−8, 10^−9 and 10^−10 M for 24 h. Total RNA was extracted using RNeasy Mini kit (Qiagen); treated with DNase I (Qiagen) and Reverse Transcription Reagent (Applied Biosystems) with Random Examers were used for reverse transcription according to the manufacturers' instructions. Real Time PCR analysis was performed in multiplex using commercially available β-actin VIC-conjugated probe (cat. n. 4352341E, Applied Biosystems) and custom designed mRENIN FAM-conjugated probe (Assay by Design, Applied Biosystems; Forward: […]; Reverse: […]; Probe: FAM-[…]-MGB). Reactions were performed in a 25 μL volume containing 12,5 μl 2× Master Mix (Applied Biosystems), 10 ng/reaction/well cDNA, and 2,5 μM each gene-specific primer. An ABI PRISM 7700 analyzer (Applied Biosystems) was used at 50° C. for 2 minutes and 95° C. for 10 minutes, followed by 40 cycles at 95° C. for 15 seconds and 60° C. for 1 minute. Cycle threshold (Ct) values were exported onto Excel worksheets for analysis. Test cDNA results were normalized versus mouse β-actin housekeeping gene. Fold differences in gene expression between the subtracted versus the unsubtracted populations were expressed using the method of 2^−ΔΔCt. (Table 6)

Data set [7] in a line: Theoretical maximum absorbable dose (MAD), human intestine. The following applies: calculated using PAMPA permeability. As for the experimental part:
as §2

The nature of data set [8]: Theoretical maximum absorbable dose (MAD), rat intestine. The following applies: calculated using PAMPA permeability. Here is the method: as §2
Data set [9] can be described thus: Solubility in aqueous buffer. The following applies: kinetic from dmso stock. The format is physicochemical. Here is the method:
[…] A 96-well plate format assay was used. […] Solutions were filtered through a 0.22 μm and concentrations of the concentration of the compound in the filtrate was determined using LC-MS/MS in comparison with 1 and 10 μM standards. The measurements were expressed as mM.

Data set [10] can be described thus: Permeability by passive diffusion (PAMPA). The conditions noted are these: for Papp at 4 h, 10 μM: PAMPA. The format is in vitro ADME. As for the experimental part: Permeability by Passive Diffusion (PAMPA). Experiments were performed in 96-well acceptor and donor plates using 15% soy lecithin in n-dodecane artificial membranes. The acceptor plate (96 well hydrophobic filter plate (MAIP N45, Millipore)) was prepared by adding 4 μL of artificial membrane material on the top of the filter and the plate was filled with 200 μL of HEPES buffered HBSS (pH 7.4). The donor plate (an indented 96-well plate from p-ION, MA) was filled with 200 μL of HEPES buffered HBSS (pH 7.4) containing 10 μM of the test compounds. The acceptor plate was placed onto the donor plate to form a “sandwich” and was incubated at 37° C. for 4 hours. After the incubation period, acceptor, donor and initial donor solution (reference) were analysed via LC-MS/MS. Data were reported as bilateral Peff in cm×10^−6/sec and % retention in the membrane.
(The PAMPA barrier holds no transporters, so it reflects passive diffusion.)

Another data set concerns Caco-2 cells. In words: Apparent permeability on Caco-2 cells. The format is in vitro ADME, Human. As for the experimental part:
(§3) Apparent Permeability on Caco-2 cells. Human colon adenocarcinoma (Caco-2) cells were obtained from the American Type Culture Collection (Rockville, Md.). Permeability studies were performed using a 24-well format in both transport directions, apical to basolateral (A→B) and basolateral to apical (B→A), on Caco-2 monolayers. Fresh donor solution containing 10 μM test compound was added to either the apical or the basolateral side, while drug-free medium was placed on the opposite side. The 24-transwell plates were placed on a plate shaker at 37° C. After 2 h, the buffer from the receiving and donor chambers were collected and aliquots were analysed via LC-MS/MS. The data reported were the permeability cm·10^−6/sec and the efflux ratio.
In general terms: Caco-2 cells form a polarised layer with tight junctions and transporters.

Data set [11] in a line: Apparent permeability on Caco-2 cells. The class given is in vitro ADME, Human. The conditions noted are these: human, Caco-2, Table 8. Here is the method: as §3

T1 sequence (P08684 whole entry): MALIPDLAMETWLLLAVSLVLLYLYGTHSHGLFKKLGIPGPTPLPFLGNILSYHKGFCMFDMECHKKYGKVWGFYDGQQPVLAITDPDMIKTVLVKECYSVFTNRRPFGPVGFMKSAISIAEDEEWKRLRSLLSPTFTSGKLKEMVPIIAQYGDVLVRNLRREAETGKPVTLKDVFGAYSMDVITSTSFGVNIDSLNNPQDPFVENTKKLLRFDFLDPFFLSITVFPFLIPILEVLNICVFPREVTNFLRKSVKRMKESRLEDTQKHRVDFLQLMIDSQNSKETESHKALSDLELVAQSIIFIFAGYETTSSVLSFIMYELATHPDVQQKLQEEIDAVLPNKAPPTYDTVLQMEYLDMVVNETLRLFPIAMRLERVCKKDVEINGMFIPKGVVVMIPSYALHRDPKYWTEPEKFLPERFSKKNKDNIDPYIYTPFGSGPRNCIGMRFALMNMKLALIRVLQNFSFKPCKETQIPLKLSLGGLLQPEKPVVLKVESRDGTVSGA

What is called MTD is the highest dose tested that stayed within the study's limit of toxicity. On to `C=C1/C(=C\C=C2/CCC[C@]3(C)C([C@H](C)CCCC(C)(C)O)CC[C@@H]23)C[C@@H](O)C[C@@H]1O` (stereo partly shown) [1,25(OH)2D3, 1,25-dihydroxycholecalciferol, reference compound], for which the IC50 was 28.7 µM in the data set on RT112; 19 µM in the data set on RT112 (Homo sapiens, RT-112, 72 h); 26 µM in the data set with RT4; 45 µM with RT4 (Homo sapiens, RT-4, 72 h); 50 µM with HT1376; 0.0496 nM in data set [3]. In the data set on NHEK, this compound gave an IC50 of 4.5 µM. For the same compound, the “inhibiting the basal growth of bladder cells” value in data set [1] is “effective”. Besides, the MTD at 4 days in data set [2] is 0.3 µg/kg.

One may read the solubility as the concentration that dissolves in the medium under given conditions. For orientation: Papp means a coefficient for how fast a substance crosses the barrier. For `CC(C)(O)CCCC1(C2=CCC3/C(=C/C=C4/CC(O)C[C@H](O)C4)CCC[C@]23C)CC1` (stereo partly drawn) [Compound 9, 1α,25-Dihydroxy-16-ene-20-cyclopropyl-19-nor-cholecalciferol], the IC50 with RT112 (Homo sapiens, RT-112) was above 30 µM; in data set [6] it was 0.00878 µM; in the data set with RT4 (Homo sapiens, RT-4), 9.9 µM; in data set [3], 0.031 nM; in the data set with NHEK, 6.1 µM. Also, the CYP3A4 stability in [4] is reported as 33.3 % remaining. Further, the “MAD (ug) mouse (PAMPA)” value in data set [5] is 23.61 µg. The MTD at 4 days in [2] was 1 µg/kg. Further, in data set [7], the “MAD (ug) human (PAMPA)” value is 8023.11 µg. In addition, the “MAD (ug) rat (PAMPA)” value in data set [8] was 115.08 µg. In addition, the concentration in solution in data set [9] (pH 7, 2 h) (solubility at 2 h) came to 19.9 µM (≈ 8.25 µg/mL). In data set [9] (pH 7, 24 h), this compound yielded a solubility at 24 h of 21.6 µM (≈ 8.96 µg/mL). The compound also showed a solubility in [9] (pH 7.4, aqueous buffer) of 8.27 µg/mL (≈ 19.9 µM). Moreover, the “PAMPA % Memb” value in data set [10] (% retention in the membrane) amounted to 97.1%. Also, the apparent permeability (Papp) at 4 h, 10 μM worked out at 36 ×10⁻⁶ cm/s in data set [10] (pH 7.4, 10 μM, pH 7.4, 37° C., 4 hours, Table 9) and 36 ×10⁻⁶ cm/s in data set [10] (pH 7.4, Table 8). The “Papp_A > B” value in the data set on Caco-2 cells (apical to basolateral, 10 μM, 2 h) was 4.8 cm·10^−6/sec. The Mass Bal A > B in the data set on Caco-2 cells (apical to basolateral, unit assumed) was 36.7%. In addition, the Mass Bal B > A with Caco-2 cells (basolateral to apical) amounted to 89.1%. Moreover, the “Papp_B >” value in the data set with Caco-2 cells (basolateral to apical, 10 μM, 2 h) worked out at 6.5 cm·10^−6/sec. The Papp A→B at 2 h, 10 μM in data set [11] (apical to basolateral, read-out: Caco2 Papp_AB) was 4.82 ×10⁻⁶ cm/s. Also, in data set [11] (basolateral to apical, read-out: Caco2 Papp_BA), the Papp B→A at 2 h, 10 μM was found to be 6.46 ×10⁻⁶ cm/s.
